Measured values taken from ChEMBL document CHEMBL1201862, “PubChem BioAssay data set” (2004).
The source made the active and inactive calls.

Tests used:
[1] = target: Serine/threonine-protein kinase pim-1 (Homo sapiens, UniProt P11309); format: functional
[2] = target: Serine/threonine-protein kinase pim-3 (Homo sapiens, UniProt Q86V86); format: functional;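 also: value obtained as one member of a broad kinase panel profiling effort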
[3] = target: Mitogen-activated protein kinase kinase kinase kinase 5 (Homo sapiens, UniProt Q9Y4K4); format: functional;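 also: measured as one member of a kinome-spanning kinase panel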
[4] = target: Glycogen synthase kinase-3 beta (Homo sapiens, UniProt P49841); format: functional;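 also: value comes from a broad kinome profiling panel, with GSK3B as the panel member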
[5] = target: Mitogen-activated protein kinase kinase kinase kinase 4 (Homo sapiens, UniProt O95819); format: functional
[6] = target: Serine/threonine-protein kinase BRSK1 (Homo sapiens, UniProt Q8TDC3); format: functional;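 also: measured within a kinome-wide kinase panel, with the target listed as KIAA1811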
[7] = target: Aryl hydrocarbon receptor (Homo sapiens, UniProt P35869); conditions: Potency;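 also: confirmatory quantitative high-throughput screen measuring activation of the AhR signaling pathway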
[8] = Luminescence Cell-Based Dose Confirmation HTS to Identify Activators of 5'UTR Stem-Loop Driven Alpha-Synuclein mRNA Translation in H4 Neuroglioblastoma Cells. [Related pubchem assays: 1829 (Project Summary), 1814 (Primary HTS)]; format: functional
[9] = Luminescence Cell-Based Dose Response HTS to Identify Activators of Luciferase Translation or Activity in H4 […] Cells. [Related pubchem assays: 1829 (Project Summary), 1814 (Primary HTS)]; format: functional
[10] = tested on: H4; test: Luminescence Cell-Based Dose Response HTS to Identify Activators of 5'UTR Stem-Loop Driven Prion Protein mRNA Translation in H4 Neuroglioblastoma Cells. [Related pubchem assays: 1829 (Project Summary), 1814 (Primary HTS)]; format: functional; conditions: Homo sapiens
[11] = target: Cysteine protease ATG4B (Homo sapiens, UniProt Q9Y4P1); format: functional;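 also: Fluorescence-based dose-response confirmation assay measuring inhibition of ATG4B activity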
[12] = target: Phospholipase A2 (Homo sapiens, UniProt P04054); format: functional;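 also: confirmatory dose-response counterscreen on phospholipase A2, testing hits that came from an ultra-high-throughput screen for ATG4B inhibitors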
[13] = Trypanosoma cruzi growth suppression in host cells – NIH3T3 host cells, beta-gal luminescence, confirmation (AID 2044); format: functional, cell-based;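 also: intracellular parasites grown in NIH/3T3 mouse fibroblasts as host cells; luminescent beta-galactosidase reporter signal from transgenic T. cruzi replicating inside host cells; inhibitors lower the luminescence signal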
[14] = NIH3T3 cell viability loss – ATP luminescence, mouse fibroblasts, counter-screen, dose response (AID 2010); format: functional, cell-based;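 also: cells exposed to compound for about 90 hours before reading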
[15] = THP-1 cell cytotoxicity, dose response, cytotoxicity control for non-replicating M. tuberculosis project (AID 489025); format: functional
[16] = HepG2 cell cytotoxicity, dose response, cytotoxicity control for non-replicating M. tuberculosis project (AID 489018); format: functional; conditions: Mycobacterium tuberculosis
[17] = Vero E6 cell cytotoxicity, dose response, cytotoxicity control for non-replicating M. tuberculosis project, secondary assay (AID 492998); format: functional, VeroE6; conditions: Vero C1008
[18] = cells; format: functional
[19] = target: Apoptotic protease-activating factor 1 (Homo sapiens, UniProt O14727); format: functional
[20] = target: Delta-type opioid receptor (Homo sapiens, UniProt P41143); test: Counterscreen for agonists of heterodimerization of the mu 1 (OPRM1) and delta 1 (OPRD1) opioid receptors: Luminescence-based cell-based high throughput dose response assay to identify agonists of OPRD1 homodimerization. [Related pubchem assays (depositor defined):AID504326, AID504355, AID504692, AID504904, AID504905]; format: functional
[21] = target: Mu-type opioid receptor (Homo sapiens, UniProt P35372); test: Counterscreen for agonists of heterodimerization of the mu 1 (OPRM1) and delta 1 (OPRD1) opioid receptors: Luminescence-based cell-based high throughput dose response assay to identify agonists of OPRM1 homodimerization.; format: functional;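 also: U2OS cells expressing OPRM1 and beta-arrestin as split beta-galactosidase partners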
[22] = target: 5-hydroxytryptamine receptor 5A (Homo sapiens, UniProt P47898); test: Counterscreen for agonists of OPRM1-OPRD1 heterodimerization: luminescence-based cell-based high throughput dose response assay to identify agonists of 5-hydroxytryptamine (serotonin) 5A receptor (HTR5A). [Related pubchem assays (depositor defined):AID504326, AID504355, AID504692, AID504904, AID504905]; format: functional
[23] = target: Potassium voltage-gated channel subfamily KQT member 2 (Rattus norvegicus, UniProt O88943); test: blockers of KCNQ2 channel current – cell-based, automated electrophysiology, set II, rat KCNQ2, dose response (AID 588637); format: functional
[24] = target: Tyrosine-protein phosphatase non-receptor type 11 (Homo sapiens, UniProt Q06124); test: PTPN11 enzyme inhibitors – biochemical, selectivity assay for STEP inhibitor project, dose response (AID 602367); format: functional; conditions: read-out: IC50_Mean
[25] = target: Tyrosine-protein phosphatase non-receptor type 5 (Homo sapiens, UniProt P54829); test: PTPN5 enzyme inhibition – biochemical, fluorescence intensity, uHTS hits, confirmation (AID 602372); format: functional; conditions: read-out: IC50_Mean
[26] = target: Dual specificity protein phosphatase 3 (Homo sapiens, UniProt P51452); test: VHR phosphatase inhibition, dose response, selectivity assay for STEP inhibitor project, biochemical (AID 602374); format: functional; conditions: read-out: IC50_Mean
Chain of Dual specificity protein phosphatase 3 (P51452 whole entry): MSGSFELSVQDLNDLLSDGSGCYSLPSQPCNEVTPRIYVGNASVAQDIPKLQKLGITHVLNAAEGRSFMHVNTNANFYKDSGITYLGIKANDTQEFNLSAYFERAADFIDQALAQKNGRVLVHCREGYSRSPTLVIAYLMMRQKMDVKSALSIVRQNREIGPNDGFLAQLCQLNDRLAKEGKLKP

Chain of Glycogen synthase kinase-3 beta (P49841 whole entry): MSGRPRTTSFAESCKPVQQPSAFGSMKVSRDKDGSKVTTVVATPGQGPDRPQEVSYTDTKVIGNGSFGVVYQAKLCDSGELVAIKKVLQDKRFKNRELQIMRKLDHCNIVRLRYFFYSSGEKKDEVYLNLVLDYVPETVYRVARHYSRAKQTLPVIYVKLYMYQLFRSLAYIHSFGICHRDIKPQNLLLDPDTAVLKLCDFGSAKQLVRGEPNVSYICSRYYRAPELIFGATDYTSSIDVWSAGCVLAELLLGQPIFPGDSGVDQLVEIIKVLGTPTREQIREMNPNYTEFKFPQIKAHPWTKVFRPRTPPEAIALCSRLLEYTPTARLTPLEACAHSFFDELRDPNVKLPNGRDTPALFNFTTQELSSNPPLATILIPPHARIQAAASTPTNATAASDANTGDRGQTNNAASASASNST
Chain of Serine/threonine-protein kinase pim-1 (P11309 whole entry): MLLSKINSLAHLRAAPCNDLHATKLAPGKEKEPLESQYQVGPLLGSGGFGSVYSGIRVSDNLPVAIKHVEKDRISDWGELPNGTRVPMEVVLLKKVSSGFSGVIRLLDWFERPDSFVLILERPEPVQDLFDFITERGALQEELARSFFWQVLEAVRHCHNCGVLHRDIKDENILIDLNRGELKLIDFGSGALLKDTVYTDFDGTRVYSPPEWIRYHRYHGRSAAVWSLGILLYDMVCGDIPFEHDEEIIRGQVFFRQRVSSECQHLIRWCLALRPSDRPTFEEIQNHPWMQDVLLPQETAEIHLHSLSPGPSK
Chain of Potassium voltage-gated channel subfamily KQT member 2 (O88943 whole entry): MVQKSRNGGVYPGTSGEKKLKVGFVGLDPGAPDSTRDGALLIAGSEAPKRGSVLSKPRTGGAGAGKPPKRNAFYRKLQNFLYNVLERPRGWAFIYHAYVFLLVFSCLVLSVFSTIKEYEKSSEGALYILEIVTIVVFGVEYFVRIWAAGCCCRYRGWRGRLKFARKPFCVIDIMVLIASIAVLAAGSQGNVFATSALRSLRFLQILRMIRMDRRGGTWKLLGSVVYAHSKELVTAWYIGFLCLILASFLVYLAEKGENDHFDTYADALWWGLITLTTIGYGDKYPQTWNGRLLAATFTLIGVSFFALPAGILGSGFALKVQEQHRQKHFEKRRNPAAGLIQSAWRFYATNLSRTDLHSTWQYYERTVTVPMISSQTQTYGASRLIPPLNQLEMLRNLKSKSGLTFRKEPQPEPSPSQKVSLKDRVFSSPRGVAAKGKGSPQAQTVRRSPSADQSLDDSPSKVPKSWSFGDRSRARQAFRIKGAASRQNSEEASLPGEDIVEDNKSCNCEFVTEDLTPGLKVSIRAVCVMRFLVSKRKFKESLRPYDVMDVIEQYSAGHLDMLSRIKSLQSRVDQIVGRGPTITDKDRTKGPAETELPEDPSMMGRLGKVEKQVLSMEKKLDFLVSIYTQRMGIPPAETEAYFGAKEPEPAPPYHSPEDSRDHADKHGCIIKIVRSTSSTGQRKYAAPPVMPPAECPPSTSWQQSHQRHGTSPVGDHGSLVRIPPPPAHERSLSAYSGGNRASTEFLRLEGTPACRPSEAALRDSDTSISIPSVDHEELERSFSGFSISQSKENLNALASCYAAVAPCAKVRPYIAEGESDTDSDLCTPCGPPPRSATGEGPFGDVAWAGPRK
Chain of Tyrosine-protein phosphatase non-receptor type 11 (Q06124 whole entry): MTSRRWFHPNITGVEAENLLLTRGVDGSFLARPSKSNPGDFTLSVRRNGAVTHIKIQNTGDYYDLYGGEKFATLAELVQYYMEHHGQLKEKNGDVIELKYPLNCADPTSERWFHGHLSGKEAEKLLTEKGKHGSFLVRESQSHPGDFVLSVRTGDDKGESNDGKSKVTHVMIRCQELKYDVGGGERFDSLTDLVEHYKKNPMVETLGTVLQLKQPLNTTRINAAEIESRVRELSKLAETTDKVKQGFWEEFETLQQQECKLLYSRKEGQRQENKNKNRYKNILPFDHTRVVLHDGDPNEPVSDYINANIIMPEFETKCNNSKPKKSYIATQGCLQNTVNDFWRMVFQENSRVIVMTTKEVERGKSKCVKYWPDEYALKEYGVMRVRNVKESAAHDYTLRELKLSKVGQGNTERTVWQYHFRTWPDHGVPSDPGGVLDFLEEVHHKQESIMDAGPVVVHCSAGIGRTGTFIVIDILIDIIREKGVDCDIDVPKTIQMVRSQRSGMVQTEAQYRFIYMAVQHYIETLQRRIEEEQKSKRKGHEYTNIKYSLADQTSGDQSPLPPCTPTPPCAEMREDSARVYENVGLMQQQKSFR
Chain of Mitogen-activated protein kinase kinase kinase kinase 4 (O95819 whole entry): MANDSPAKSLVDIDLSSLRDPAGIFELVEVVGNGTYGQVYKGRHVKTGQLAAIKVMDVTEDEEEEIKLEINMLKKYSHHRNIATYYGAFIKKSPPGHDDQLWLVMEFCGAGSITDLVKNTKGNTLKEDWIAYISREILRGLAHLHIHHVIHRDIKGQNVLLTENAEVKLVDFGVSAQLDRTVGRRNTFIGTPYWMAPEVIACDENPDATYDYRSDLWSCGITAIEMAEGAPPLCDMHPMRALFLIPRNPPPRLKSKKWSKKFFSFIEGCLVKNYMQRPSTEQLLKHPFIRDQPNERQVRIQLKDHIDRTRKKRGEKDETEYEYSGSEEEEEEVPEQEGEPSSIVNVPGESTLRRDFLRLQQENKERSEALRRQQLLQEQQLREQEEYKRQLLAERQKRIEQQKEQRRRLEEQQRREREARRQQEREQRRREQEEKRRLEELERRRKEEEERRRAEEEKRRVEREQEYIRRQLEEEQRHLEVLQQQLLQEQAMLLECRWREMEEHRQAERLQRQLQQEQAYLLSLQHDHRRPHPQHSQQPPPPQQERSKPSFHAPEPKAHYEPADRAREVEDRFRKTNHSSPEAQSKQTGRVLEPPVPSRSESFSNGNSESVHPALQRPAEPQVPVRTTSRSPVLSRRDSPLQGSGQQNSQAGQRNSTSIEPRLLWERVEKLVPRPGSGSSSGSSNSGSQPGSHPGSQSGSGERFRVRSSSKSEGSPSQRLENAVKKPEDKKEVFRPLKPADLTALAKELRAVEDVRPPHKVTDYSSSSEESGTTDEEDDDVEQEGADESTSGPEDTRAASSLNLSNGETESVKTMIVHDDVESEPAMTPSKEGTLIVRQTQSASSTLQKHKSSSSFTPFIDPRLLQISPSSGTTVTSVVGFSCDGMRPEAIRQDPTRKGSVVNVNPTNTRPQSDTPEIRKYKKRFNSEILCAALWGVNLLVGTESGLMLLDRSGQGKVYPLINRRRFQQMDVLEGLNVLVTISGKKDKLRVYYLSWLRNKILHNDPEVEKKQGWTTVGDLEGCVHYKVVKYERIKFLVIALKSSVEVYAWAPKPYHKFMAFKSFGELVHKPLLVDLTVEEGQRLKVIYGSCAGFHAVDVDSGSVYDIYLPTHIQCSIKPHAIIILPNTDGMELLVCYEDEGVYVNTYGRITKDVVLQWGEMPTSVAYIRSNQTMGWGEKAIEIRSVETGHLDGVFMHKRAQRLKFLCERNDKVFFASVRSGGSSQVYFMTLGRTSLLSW
Chain of Cysteine protease ATG4B (Q9Y4P1 whole entry): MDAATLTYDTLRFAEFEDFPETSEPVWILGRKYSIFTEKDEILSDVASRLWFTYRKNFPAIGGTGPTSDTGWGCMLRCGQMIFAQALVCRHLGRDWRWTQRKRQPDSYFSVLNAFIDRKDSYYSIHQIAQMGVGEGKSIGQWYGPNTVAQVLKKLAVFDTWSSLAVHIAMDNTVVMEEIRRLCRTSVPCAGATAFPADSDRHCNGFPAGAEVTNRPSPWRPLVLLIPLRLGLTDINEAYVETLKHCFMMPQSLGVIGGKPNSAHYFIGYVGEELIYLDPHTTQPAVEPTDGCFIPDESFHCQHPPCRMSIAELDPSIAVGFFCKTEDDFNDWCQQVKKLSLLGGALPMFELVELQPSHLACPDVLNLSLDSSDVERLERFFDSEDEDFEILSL
Chain of 5-hydroxytryptamine receptor 5A (P47898 whole entry): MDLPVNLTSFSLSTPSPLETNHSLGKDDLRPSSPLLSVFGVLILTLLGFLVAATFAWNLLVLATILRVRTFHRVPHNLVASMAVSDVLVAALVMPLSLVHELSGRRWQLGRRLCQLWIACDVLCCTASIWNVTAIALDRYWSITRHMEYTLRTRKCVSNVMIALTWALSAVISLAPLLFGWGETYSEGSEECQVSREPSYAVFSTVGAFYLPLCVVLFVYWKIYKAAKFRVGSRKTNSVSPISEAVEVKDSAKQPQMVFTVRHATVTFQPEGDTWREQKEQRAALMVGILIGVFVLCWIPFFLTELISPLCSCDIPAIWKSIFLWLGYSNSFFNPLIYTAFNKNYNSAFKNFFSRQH
Chain of Phospholipase A2 (P04054 whole entry): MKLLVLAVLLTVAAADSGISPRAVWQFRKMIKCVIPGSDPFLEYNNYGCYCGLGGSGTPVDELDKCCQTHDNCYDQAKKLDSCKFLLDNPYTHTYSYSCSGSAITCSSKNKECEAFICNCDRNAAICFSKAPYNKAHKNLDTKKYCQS

O=c1cc(C(F)(F)F)c2c(-c3cccc(C(F)(F)F)c3)n[nH]c2[nH]1
Ki [1]: 5.01 µM (active)
Ki [2]: 2 µM (active)
Ki [3]: 5.01 µM (active)
Ki [4]: 5.01 µM (active)
Ki [5]: 5.01 µM (active)
Ki [6]: 7.94 µM (active)

Oc1ccc(O)c2c(O)cccc12
AC50 [7]: 39.8 µM (inconclusive)

Cc1nn(Cc2c(F)c(F)c(F)c(F)c2F)c(C)c1NC(=O)c1ccc(COc2cc(Cl)ccc2Cl)cc1
EC50 [8]: > 120 µM (not active)
EC50 [9]: 7.73 µM (active)
EC50 [10]: 3.37 µM (active)
IC50 [11]: 0.532 µM (active)
IC50 [12]: 0.27 µM (active)

CN1CCN(c2ccc(NC(=O)c3ccc(-c4ccc(Br)cc4)o3)cc2)CC1
EC50 [13]: 1.26 µM (active)
EC50 [14]: > 60 µM (not active)
CC50 [15]: 16.7 µM (active)
CC50 [16]: > 20 µM (active)
CC50 [17]: 13 µM (active)
IC50 [18]: 2.59 µM (active)
IC50 [19]: 37 µM (active)
EC50 [20]: > 10.3 µM (inactive)
EC50 [21]: > 3.42 µM (active)
EC50 [22]: > 92.5 µM (inactive)

CCOC(=O)N1CCC(N(CCOC)C(=O)Nc2ccc(C)c(C)c2)CC1
IC50 [23]: 0.477 µM (active)

Cc1ccc(Cn2cc(C=O)c(-c3ccc(C)cc3)n2)cc1
IC50 [24]: > 80 µM (inactive)
IC50 [25]: > 80 µM (inactive)
IC50 [26]: 73.9 µM (inactive)
